Patent US9945862B2, “Biomarkers for predicting and assessing responsiveness of thyroid and kidney cancer subjects to lenvatinib compounds” (Eisai R&D Management Co., Ltd., priority 2011, dated 2018)

System: cytokine, chemokine and angiogenic factors (blood biomarkers)
Assay: Serum blood biomarkers (cytokine, chemokine and angiogenic factors) by ELISA and multiplex kits, pre- and post-treatment with E7080
Format: in vivo, human
Method: Patients received E7080 at a dose of 24 mg oral once daily in 28 day cycles. […] 7.5 mL of blood was drawn into serum […] tube (SST) and let to clot at room temperature for at least 30 min. Within 60 minutes of sample collection, the tubes were centrifuged for 10 minutes at 20-25° C. at 1400×g. The supernatant was drawn without disturbing the pellet and the serum was mixed and divided into two sample tubes and stored frozen (−70° C.) at an upright position until further treatment for analysis. Serum samples from 58 patients were used for blood biomarker analysis. […] The association of progression free survival with or without a covariate was analyzed. The covariates used are the following PK parameters: cycle 1 day 1 Cmax (E7080 concentration 2 hr after dosing on cycle 1 day 1: MAX1); cycle 1 day 1 Ctrough (E7080 concentration before dosing on cycle1 day 8: MIN1); cycle 2 day 1 Cmax (E7080 concentration 2 hrs after dosing on cycle 2 day 1: MAX2); cycle 2 day 1 Ctrough (E7080 concentration before dosing on cycle 2 day 1: MIN2). Serum samples were tested in batch format where all timepoints from the same subject were assayed on the same day. On the day of assay, samples were removed from −80° C. and allowed to thaw and reach room temperature. The serum samples were tested using the following commercial assay kits as per the manufacturer's instructions: Human Soluble Tie-2 ELISA (R&D Systems Cat. No. DTE200), Human Angiopoietin-1 ELISA (R&D Systems Cat. No. DANG10), Human FGF23 ELISA, Human SDF-1a ELISA. Human Angiopoietin-2 ELISA (R&D Systems Cat. No. DANG20), Human Soluble Receptor Multiplex (Millipore Cat. No. HSCR-32K; sVEGF R1, sVEGF R2 and sVEGF R3 only), Human Cytokine/Chemokine Panel I Multiplex (Millipore Cat. No. MPXHCYTO-60K; IL-1α, IL-1β, IL-1ra, IL-2, IL-4, IL-5, IL-6, IL-7, IL-8, IL-10, IL-12p40, IL-12p70, IL-13, IL-15, IL-17, sCD40L, EGF, Eotaxin, FGF-2, G-CSF, GM-CSF, IFN-γ, IP-10, MCP-1, MIP-1α, MIP-1β, PDGF-AA, RANTES, TGF-α, TNF-α and VEGF only) and Human Growth Factor Multiplex (Origene TruPLEX Cat. No. AM100096; PDGF-AB, PDGF-BB, FGF4, VEGFD, FGF2, EGF, HGF, FLT3LG, ANGPT2, PGF and VEGFA).
The ELISA plates were measured using a Molecular Devices UVmax kinetic microplate reader with SoftMax Pro 5.2 software. The multiplex assays were performed using the Bio-Rad Bio-Plex system with Bio-Plex Manager 4.1 software. Final protein concentrations (pg/mL) were calculated from the standard curve for each assay. Depending on the assay, serum samples may have been diluted in assay buffer prior to testing. In these cases, protein concentrations were multiplied by the dilution factor.
From 58 patient samples, between 27 and 49 pre- and post-treatment blood samples were used for analyses.

COc1cc2nccc(Oc3ccc(NC(=O)NC4CC4)c(Cl)c3)c2cc1C(N)=O [E7080, 4-(3-chloro-4-(cyclopropylaminocarbonyl)aminophenoxy)-7-methoxy-6-quinolinecarboxamide]
ANG2 (90) concentration (Median), PR group (CYCLE 1 DAY 1 (pre-treatment)): 829.5 pg/mL | ANG2 (90) concentration (Median), others (SD or PD) (CYCLE 1 DAY 1 (pre-treatment)): 1032.9 pg/mL | Ang-2 concentration (Median), PR group (CYCLE 1 DAY 1 (pre-treatment)): 2530.5 pg/mL | Ang-2 concentration (Median), others (SD or PD) (CYCLE 1 DAY 1 (pre-treatment)): 3399 pg/mL | IFN-g concentration (Median), PR group (CYCLE 1 DAY 1 (pre-treatment)): 7.9 pg/mL | IFN-g concentration (Median), others (SD or PD) (CYCLE 1 DAY 1 (pre-treatment)): 21.2 pg/mL | ANG2 (90) concentration (Median), PR group (CYCLE 1 DAY 8): 591.7 pg/mL | ANG2 (90) concentration (Median), others (SD or PD) (CYCLE 1 DAY 8): 799.3 pg/mL | ANG2 (90) serum level post treatment (median) (CYCLE 1 DAY 8): 688.6 pg/mL | Ang-2 serum level post treatment (median) (CYCLE 1 DAY 8): 1812 pg/mL | Eotaxin serum level post treatment (median) (CYCLE 1 DAY 8): 154.7 pg/mL | FLT3 LG (89) serum level post treatment (median) (CYCLE 1 DAY 8): 71.1 pg/mL | G-CSF serum level post treatment (median) (CYCLE 1 DAY 8): 67.1 pg/mL | HGF (86) serum level post treatment (median) (CYCLE 1 DAY 8): 1339.3 pg/mL | IL-6 serum level post treatment (median) (CYCLE 1 DAY 8): 17.3 pg/mL | IL-7 serum level post treatment (median) (CYCLE 1 DAY 8): 6.4 pg/mL | IL-8 serum level post treatment (median) (CYCLE 1 DAY 8): 31.7 pg/mL | IL-17 serum level post treatment (median) (CYCLE 1 DAY 8): 14.4 pg/mL | IP-10 serum level post treatment (median) (CYCLE 1 DAY 8): 474.3 pg/mL | PGF (91) serum level post treatment (median) (CYCLE 1 DAY 8): 35.9 pg/mL | SDF-1a concentration (Median), PR group (CYCLE 1 DAY 8): 3294 pg/mL | SDF-1a concentration (Median), others (SD or PD) (CYCLE 1 DAY 8): 2915 pg/mL | SDF-1a serum level post treatment (median) (CYCLE 1 DAY 8): 3129.0 pg/mL | TGFa serum level post treatment (median) (CYCLE 1 DAY 8): 14.6 pg/mL | Tie-2 serum level post treatment (median) (CYCLE 1 DAY 8): 31685 pg/mL | VEGF serum level post treatment (median) (CYCLE 1 DAY 8): 741.4 pg/mL | VEGFA (100) serum level post treatment (median) (CYCLE 1 DAY 8): 202.1 pg/mL | sVEGFR1 serum level post treatment (median) (CYCLE 1 DAY 8): 300 pg/mL | sVEGFR2 serum level post treatment (median) (CYCLE 1 DAY 8): 18823.1 pg/mL | FGF-2 ratio (Median), PR group (CYCLE 1 DAY 8/CYCLE 1 DAY 1): 1.189 | FGF-2 ratio (Median), others (SD or PD) (CYCLE 1 DAY 8/CYCLE 1 DAY 1): 0.952 | GM-CSF ratio (Median), PR group (CYCLE 1 DAY 8/CYCLE 1 DAY 1): 1.037 | GM-CSF ratio (Median), others (SD or PD) (CYCLE 1 DAY 8/CYCLE 1 DAY 1): 0.945 | ANG2 (90) fold change (median) (CYCLE 1 DAY 8 vs CYCLE 1 DAY 1): 0.671 | Ang-2 fold change (median) (CYCLE 1 DAY 8 vs CYCLE 1 DAY 1): 0.665 | Eotaxin fold change (median) (CYCLE 1 DAY 8 vs CYCLE 1 DAY 1): 1.171 | FLT3 LG (89) fold change (median) (CYCLE 1 DAY 8 vs CYCLE 1 DAY 1): 0.885 | G-CSF fold change (median) (CYCLE 1 DAY 8 vs CYCLE 1 DAY 1): 1.25 | HGF (86) fold change (median) (CYCLE 1 DAY 8 vs CYCLE 1 DAY 1): 1.096 | IL-6 fold change (median) (CYCLE 1 DAY 8 vs CYCLE 1 DAY 1): 1.824 | IL-7 fold change (median) (CYCLE 1 DAY 8 vs CYCLE 1 DAY 1): 1 | IL-8 fold change (median) (CYCLE 1 DAY 8 vs CYCLE 1 DAY 1): 1.164 | IL-17 fold change (median) (CYCLE 1 DAY 8 vs CYCLE 1 DAY 1): 1.025 | IP-10 fold change (median) (CYCLE 1 DAY 8 vs CYCLE 1 DAY 1): 1.249 | PGF (91) fold change (median) (CYCLE 1 DAY 8 vs CYCLE 1 DAY 1): 2.306 | SDF-1a fold change (median) (CYCLE 1 DAY 8 vs CYCLE 1 DAY 1): 1.21 | TGFa fold change (median) (CYCLE 1 DAY 8 vs CYCLE 1 DAY 1): 1.157 | Tie-2 fold change (median) (CYCLE 1 DAY 8 vs CYCLE 1 DAY 1): 0.917 | VEGF fold change (median) (CYCLE 1 DAY 8 vs CYCLE 1 DAY 1): 1.29 | VEGFA (100) fold change (median) (CYCLE 1 DAY 8 vs CYCLE 1 DAY 1): 1.28 | sVEGFR1 fold change (median) (CYCLE 1 DAY 8 vs CYCLE 1 DAY 1): 0.92 | sVEGFR2 fold change (median) (CYCLE 1 DAY 8 vs CYCLE 1 DAY 1): 0.676 | FGF2 (79) ratio (Median), PR group (CYCLE 2 DAY 2/CYCLE 1 DAY 8): 1.132 | FGF2 (79) ratio (Median), others (SD or PD) (CYCLE 2 DAY 2/CYCLE 1 DAY 8): 0.978 | GM-CSF ratio (Median), PR group (CYCLE 2 DAY 2/CYCLE 1 DAY 8): 1.051 | GM-CSF ratio (Median), others (SD or PD) (CYCLE 2 DAY 2/CYCLE 1 DAY 8): 0.876 | HGF (86) ratio (Median), PR group (CYCLE 2 DAY 2/CYCLE 1 DAY 8): 0.789 | HGF (86) ratio (Median), others (SD or PD) (CYCLE 2 DAY 2/CYCLE 1 DAY 8): 1.087 | Tie-2 ratio (Median), PR group (CYCLE 2 DAY 2/CYCLE 1 DAY 8): 0.791 | Tie-2 ratio (Median), others (SD or PD) (CYCLE 2 DAY 2/CYCLE 1 DAY 8): 0.852 | VEGFA (100) ratio (Median), PR group (CYCLE 2 DAY 2/CYCLE 1 DAY 8): 0.899 | VEGFA (100) ratio (Median), others (SD or PD) (CYCLE 2 DAY 2/CYCLE 1 DAY 8): 1.172 | ANG2 (90) serum level post treatment (median) (CYCLE 2 DAY 8): 600.6 pg/mL | Ang-2 serum level post treatment (median) (CYCLE 2 DAY 8): 1533 pg/mL | EGF (80) serum level post treatment (median) (CYCLE 2 DAY 8): 875.8 pg/mL | EGF serum level post treatment (median) (CYCLE 2 DAY 8): 75.9 pg/mL | Eotaxin serum level post treatment (median) (CYCLE 2 DAY 8): 177 pg/mL | G-CSF serum level post treatment (median) (CYCLE 2 DAY 8): 61.3 pg/mL | IL-6 concentration (Median), PR group (CYCLE 2 DAY 8): 8.2 pg/mL | IL-6 concentration (Median), others (SD or PD) (CYCLE 2 DAY 8): 33.9 pg/mL | IL-6 serum level post treatment (median) (CYCLE 2 DAY 8): 15 pg/mL | IL-8 serum level post treatment (median) (CYCLE 2 DAY 8): 31.4 pg/mL | IP-10 serum level post treatment (median) (CYCLE 2 DAY 8): 602.8 pg/mL | MCP-1 serum level post treatment (median) (CYCLE 2 DAY 8): 618.0 pg/mL | PGF (91) serum level post treatment (median) (CYCLE 2 DAY 8): 46.0 pg/mL | SDF-1a serum level post treatment (median) (CYCLE 2 DAY 8): 3529.5 pg/mL | Tie-2 serum level post treatment (median) (CYCLE 2 DAY 8): 26220 pg/mL | VEGFA (100) serum level post treatment (median) (CYCLE 2 DAY 8): 212.5 pg/mL | sVEGFR1 serum level post treatment (median) (CYCLE 2 DAY 8): 341.5 pg/mL | sVEGFR2 serum level post treatment (median) (CYCLE 2 DAY 8): 13352.1 pg/mL | sVEGFR3 serum level post treatment (median) (CYCLE 2 DAY 8): 4030.9 pg/mL | Eotaxin ratio (Median), PR group (CYCLE 2 DAY 8/CYCLE 1 DAY 1): 1.541 | Eotaxin ratio (Median), others (SD or PD) (CYCLE 2 DAY 8/CYCLE 1 DAY 1): 1.242 | IP-10 ratio (Median), PR group (CYCLE 2 DAY 8/CYCLE 1 DAY 1): 1.547 | IP-10 ratio (Median), others (SD or PD) (CYCLE 2 DAY 8/CYCLE 1 DAY 1): 1.151 | ANG2 (90) fold change (median) (CYCLE 2 DAY 8 vs CYCLE 1 DAY 1): 0.586 | Ang-2 fold change (median) (CYCLE 2 DAY 8 vs CYCLE 1 DAY 1): 0.618 | EGF (80) fold change (median) (CYCLE 2 DAY 8 vs CYCLE 1 DAY 1): 1.17 | EGF fold change (median) (CYCLE 2 DAY 8 vs CYCLE 1 DAY 1): 0.808 | Eotaxin fold change (median) (CYCLE 2 DAY 8 vs CYCLE 1 DAY 1): 1.363 | G-CSF fold change (median) (CYCLE 2 DAY 8 vs CYCLE 1 DAY 1): 1.215 | IL-6 fold change (median) (CYCLE 2 DAY 8 vs CYCLE 1 DAY 1): 1.299 | IL-8 fold change (median) (CYCLE 2 DAY 8 vs CYCLE 1 DAY 1): 1.205 | IP-10 fold change (median) (CYCLE 2 DAY 8 vs CYCLE 1 DAY 1): 1.382 | MCP-1 fold change (median) (CYCLE 2 DAY 8 vs CYCLE 1 DAY 1): 1.086 | PGF (91) fold change (median) (CYCLE 2 DAY 8 vs CYCLE 1 DAY 1): 3.05 | SDF-1a fold change (median) (CYCLE 2 DAY 8 vs CYCLE 1 DAY 1): 1.345 | Tie-2 fold change (median) (CYCLE 2 DAY 8 vs CYCLE 1 DAY 1): 0.766 | VEGFA (100) fold change (median) (CYCLE 2 DAY 8 vs CYCLE 1 DAY 1): 1.426 | sVEGFR1 fold change (median) (CYCLE 2 DAY 8 vs CYCLE 1 DAY 1): 0.805 | sVEGFR2 fold change (median) (CYCLE 2 DAY 8 vs CYCLE 1 DAY 1): 0.499 | sVEGFR3 fold change (median) (CYCLE 2 DAY 8 vs CYCLE 1 DAY 1): 0.843
